Source: US20050008653A1, “Stabilizing molecule” (Medical Research Council, priority 2001, published 2005)
Values joined by “and” are separate entries in the source; they are usually repeats but may differ in a detail not shown here. Equal values may be shown once. Read-outs that look alike come from different tables or passages of the source. Each block holds one molecule with its values, some of them ahead of it.

Columns and labels:
[1] = target: p53 (Homo sapiens, UniProt P04637); test: Stabilisation of active conformations of p53 (no method given)
[2] = target: T1, p53 core domain (Homo sapiens, UniProt P04637); test: Anisotropy competition with fluorescein-labeled CDB3; conditions: solution measurements
[3] = target: T1, p53 core domain; test: BIAcore binding of p53 core domain to immobilised biotinylated CDB3 (half saturation concentration); design: human p53 core domain wild-type and mutants (residues 94-312); made in house
Description: Surface plasmon resonance measurements may be performed using a BIAcore 2000 using methods familiar to those skilled in the art. For example, it may be equipped with a sensor chip SA (BIAcore AB, Uppsala, Sweden) both to screen the polypeptide for binding of stabilising molecule and to quantify the binding of the stabilising molecule to the polypeptide. […] Biotinylated stabilising molecules such as CDB peptides may be immobilised and the binding of the polypeptide (in this case p53) can therefore be studied.
All immobilisation as well as binding measurements may be performed at 10° C. with 50 mM HEPES, pH 7.2, 5 mM DTT, as running buffer, using a sample frequency of 1 Hz. The streptavidin surface of the chip can be activated with […] NaOH, 1 M NaCl, in three cycles of 1 min, 20 μL/min, before the immobilization of peptides. The biotinylated peptides may be dissolved to a final concentration of 1.5-4.0 mM (in buffer as above with addition of 0.13 M NaCl) and can be immobilised at a flow rate of 5 μL/min until the level of saturation is reached. In the above Example Flow cell 1 can be used as a background for the change in bulk refractive index.
The binding association is measured for 5 min at 30 μL/min, […], in the buffer described above (no salt added). […]
Surface plasmon resonance can be used to measure the CDB3-p53 core domain binding constant quantitatively. […]

[4] = target: T2, wild-type p53 core domain (Homo sapiens, UniProt P04637); test: Differential scanning calorimetry (apparent Tm); format: binding; conditions: HEPES buffer pH 7.2, 1 mM DTT; 40.1° C. without peptide
T2 construct: human p53 core domain wild-type and mutants (residues 94-312); made in house
Experimental: Differential Scanning Calorimetry may also be used to detect and/or quantify binding. Differential Scanning Calorimetry may be performed using methods known to those skilled in the art. In a suitable example, DSC experiments are performed using a Microcal VP-DSC microcalorimeter (Microcal, Amherst, Mass.). Temperatures from 5 to 95° C. are scanned at a rate of 60 deg/h, using a HEPES buffer pH 7.2, 1 mM DTT, which also served for baseline measurements. […] A pressure of 25 psi […] is applied to the cell. The data is analysed using Origin software (Microcal).
The thermal denaturation of p53 core domain is irreversible, and thus only an apparent melting temperature (Tm) can be determined (Bullock et al., 1997), but increase in stability can be correlated with increase in the apparent Tm. All DSC measurements are carried out in HEPES buffer pH 7.2, 1 mM DTT.

[5] = tested on: H1299-His175 cells; test: Dead cells by trypan blue exclusion; format: cell-based; conditions: 10 μg/mL peptide, 24 h; before treatment 5%
[6] = tested on: control H1299 (p53 null) cells; conditions: 10 μg/mL peptide, 24 h; before treatment 3%
Experimental: (§1) The general methods used in the examples set forth below are described in detail in Bykov et al., Nature Med 8, 282-288 (2002) which is herein incorporated by reference.
(§2) Tumour cells were treated with 10 μg/mL of peptide and analysed the cell cycle distribution and cell death (as subG1 fraction) 24 h post treatment using FACS analysis.

[7] = tested on: control Saos-2 (p53 null) cells; conditions: 10 μg/mL peptide, 24 h; before treatment 3%
Experimental: as §1, §2

[8] = tested on: Saos-2-His273 cells; test: Dead cells by trypan blue exclusion; format: cell-based; conditions: 10 μg/mL peptide, 24 h; before treatment 3%
[9] = tested on: p53 mutant His175 in H1299 lung carcinoma cells; conditions: 24 h incubation
Experimental: as §1
Lung carcinoma cells H1299 transfected with His175 p53 mutant and parental nontransfected cells were treated with the amounts of peptide indicated below, incubated for 24 h and tested for p53, p21, and Mdm-2 protein expression. […] The treatment with peptide was performed either with or without Lipofectamine.

[10] = tested on: wtp53 in colon carcinoma HCT116 cells; test: Western blot of induced protein expression; format: cell-based; conditions: 24 h, 10 μg/mL FL-CDB3
[11] = tested on: HCTp53-/- cells; test: Western blot of induced protein expression; format: cell-based; conditions: 24 h, 10 μg/mL FL-CDB3
[12] = tested on: H1299 cells containing p53 R175H; test: Distribution of FL-CDB3 in cells (fluorescence microscopy); format: cell-based; conditions: without Lipofectamine
Experimental: The results can be seen in FIG. 8.
Top left: H1299 cells containing p53 R 175H. […] The peptide remained visible for at least 48 h.

[13] = target: wild-type p53 core domain (94-312) (Homo sapiens, UniProt P04637); conditions: increasing urea concentrations
[14] = target: T1, p53 core domain; conditions: Gadd45 DNA 5-25 μM
[15] = tested on: p53 mutant His273; conditions: 24 h incubation, 1-10 μg/mL FL-CDB3
[16] = target: T3, p53 core domain mutant I195T (Homo sapiens, UniProt P04637, I195T); test: Restoration of sequence-specific DNA binding (fluorescein-labelled Gadd45 DNA, anisotropy); format: biochemical; conditions: CDB3 100 μM
T3 construct: human p53 core domain wild-type and mutants (residues 94-312); made in house

[17] = target: T2, wild-type p53 core domain; test: DNA binding in presence of peptide (Gadd45 DNA); format: biochemical
[18] = target: T3, p53 core domain mutant I195T; test: Binding to random double stranded DNA sequence in presence of peptide; format: biochemical
Description: To confirm that the restoration of DNA binding is sequence-specific, we repeated the experiments with the random double stranded DNA sequence fluorescein-[…] […].

[19] = tested on: tumour cells; test: FACS analysis of cell cycle distribution and cell death (subG1); format: cell-based; conditions: 10 μg/mL, 24 h
[20] = target: T1, p53 core domain; test: Refolding of urea-denatured p53 core domain by fluorescence anisotropy; format: biochemical; design: human p53 core domain wild-type and mutants (residues 94-312); made in house; conditions: 3 M urea, 10° C.
Description: Upon mixing the peptide with p53 core domain a rapid binding event takes place, leading to the formation of a FL-CDB3-p53 core domain complex. […] There is an increase in the anisotropy over time, as the peptide induced protein refolding by mass action (FIG. 6d). […] Urea weakened the binding to the native structure so that the stabilising effects in 3 M urea are not as pronounced as they would be in water alone.

SMILES: COc1ccc(/C=C/c2nc(NCCCN(C)C)c3ccccc3n2)cc1 [CP-31398]
- stabilisation of active conformations of p53 [1]: does not in fact work to stabilise active conformations of p53

- improvement of affinity compared to the unlabeled peptide [2]: three-fold
- Kd ([3]; biotinylated CDB3 immobilized on SA sensor chip, read-out: concentration of p53 core domain for 50% binding): ~0.2 µM
- Kd ([3]; immobilized peptide, half saturation concentration by BIAcore, read-out: Kd): 0.2 µM and ~0.2 µM
SMILES: CC[C@H](C)[C@H](NC(=O)[C@H](CCC(=O)O)NC(=O)[C@H](CC(=O)O)NC(=O)[C@H](CCC(=O)O)NC(=O)[C@H](CC(=O)O)NC(=O)[C@H](CCC(=O)O)NC(=O)[C@H](CCCNC(=N)N)NC(=O)CCCC[C@@H]1SC[C@@H]2NC(=O)N[C@@H]21)C(=O)N[C@@H](CCC(=O)O)C(=O)N[C@@H](Cc1c[nH]c2ccccc12)C(N)=O [biotinylated CDB3]

SMILES: CC[C@H](C)[C@H](NC(=O)[C@H](CCC(=O)O)NC(=O)[C@H](CC(=O)O)NC(=O)[C@H](CCC(=O)O)NC(=O)[C@H](CC(=O)O)NC(=O)[C@H](CCC(=O)O)NC(=O)[C@H](CCCNC(=N)N)NC(=O)c1ccc2c(c1)C(=O)OC21c2ccc(O)cc2Oc2cc(O)ccc21)C(=O)N[C@@H](CCC(=O)O)C(=O)N[C@@H](Cc1c[nH]c2ccccc12)C(N)=O [FL-CDB3]
- apparent Tm of wild-type core domain in presence of peptide [4]: 41.6 °C
- dead cells after treatment [5]: 37%
- dead cells after treatment [6]: 11%
- dead cells after treatment [7]: 13%
- dead cells after treatment [8]: 28%
- mutant p53 levels [9]: remarkably increased
- p21 and Mdm-2 protein expression ([9]; 10 μg/mL FL-CDB3): restored the ability of p53 mutants His175 and His273 to activate the transcription of endogenous genes p21 and Mdm-2
- Mdm-2 and p21 expression [10]: activates expression of Mdm-2 and p21
- p21 and Mdm-2 induction [11]: No induction of p21 nor Mdm-2
- penetration into cells [12]: able to penetrate inside the cells by itself
- dependence of binding on urea concentration [13]: binding weakened with increasing urea concentrations
- displacement of peptide from p53 core domain by DNA [14]: displaced the peptide completely
- p21 and Mdm-2 protein expression [15]: restored the ability of p53 mutants His175 and His273 to activate the transcription of endogenous genes p21 and Mdm-2

- improvement of I195T binding to Gadd45 DNA [16]: six fold
- effect on DNA binding of wild-type p53 core domain [17]: did not affect DNA binding
- effect on binding of I195T to random DNA sequence [18]: not improved, but rather inhibited
- refolding of p53 core domain [20]: induced refolding of p53 core domain
SMILES: CC[C@H](C)[C@H](NC(=O)[C@H](CCC(=O)O)NC(=O)[C@H](CC(=O)O)NC(=O)[C@H](CCC(=O)O)NC(=O)[C@H](CC(=O)O)NC(=O)[C@H](CCC(=O)O)NC(=O)[C@@H](N)CCCNC(=N)N)C(=O)N[C@@H](CCC(=O)O)C(=O)N[C@@H](Cc1c[nH]c2ccccc12)C(N)=O [CDB3]
- apoptosis [19]: induces apoptosis in tumour cells in p53-dependent manner
- growth arrest [19]: no growth arrest was detected
- penetration into cells [12]: able to penetrate inside the cells by itself
